Assay results from ChEMBL document CHEMBL1133765, “QSAR model for drug human oral bioavailability” (J Med Chem, 2000).

What was measured:
clinical [1] = conditions: human, in vivo, po
[2] = octanol/water
physchem [3] = conditions: octanol/water
physchem [4] = assay: physchem
[5] = octanol/water; remark: listed apart in the source
clinical [6] = conditions: human, in vivo, po; remark: listed apart in the source
physchem [7] = conditions: octanol/water, pH 6.5

Structure (SMILES) | bioavailability (clinical [1]; F) [%] | delta logD [2] | logD (physchem [3]; pH 6.5, logD) | pKa (physchem [4]) | delta logD [5] | bioavailability (clinical [6]) [%] | logD (physchem [7]) | bioavailability (clinical [1]) [%] | logD (physchem [3]; pH 6.5)
CNS(=O)(=O)Cc1ccc2[nH]cc(CCN(C)C)c2c1 | < 20 | -0.9 | -2.07 | 9.4 | – | – | – | – | –
COc1ccccc1N1CCN(CCCNc2cc(=O)n(C)c(=O)n2C)CC1 | – | – | – | 7.1 | -0.52 | 79 | 0.9 | – | –
OCCN1CCN(CCC=C2c3ccccc3Sc3ccc(C(F)(F)F)cc32)CC1 | – | – | – | 8.1 | -0.83 | 79 | 2.88 | – | –
CC(C)(C)NC[C@@H](O)COc1ccccc1C1CCCC1 | – | – | – | 9.3 | -0.9 | 79 | 1.35 | – | –
CC(=O)Nc1ccc(O)cc1 [ACETAMINOPHEN] | – | – | – | – | 0 | 79 | 0.51 | – | –
CC(C)COCC(CN(Cc1ccccc1)c1ccccc1)N1CCCC1 (configuration not stated) [BEPRIDIL] | – | – | – | 9.3 | -0.9 | 79 | 1.1 | – | –
COc1ccc(CCNCC(O)COc2cccc(C)c2)cc1OC (configuration not stated) [BEVANTOLOL] | – | – | – | 8.4 | -0.87 | 79 | 1.11 | – | –
Nc1c(CC(=O)O)cccc1C(=O)c1ccc(Br)cc1 [BROMFENAC] | – | – | – | 4.3 | 0.9 | 79 | 1.39 | – | –
Cc1nnc2n1-c1sc(Br)cc1C(c1ccccc1Cl)=NC2 [BROTIZOLAM] | – | – | – | 6.2 | -0.14 | 79 | 2.63 | – | –
CCc1cccc2cc(C(O)CNC(C)(C)C)oc12 (configuration not stated) [BUFURALOL] | – | – | – | 9 | -0.89 | 79 | 1 | – | –
CC(C)(C)NCC(O)COc1cccc2c1CCCC2=O (configuration not stated) [BUNOLOL] | – | – | – | 9.3 | -0.9 | 79 | -0.4 | – | –
CNC1=Nc2ccc(Cl)cc2C(c2ccccc2)=[N+]([O-])C1 [CHLORDIAZEPOXIDE] | – | -0.01 | – | 4.8 | – | – | – | > 80 | 2.43
NS(=O)(=O)c1cc(C2(O)NC(=O)c3ccccc32)ccc1Cl (configuration not stated) [CHLORTHALIDONE] | – | – | – | – | 0 | 79 | 0.22 | – | –
CN/C(=N/CCSCc1nc[nH]c1C)NC#N [CIMETIDINE] | – | – | – | – | – | 79 | -0.08 | – | –
Clc1cccc(Cl)c1N=C1NCCN1 [CLONIDINE] | > 80 | -0.82 | 0.06 | 8 | – | – | – | – | –
Cc1onc(-c2c(Cl)cccc2Cl)c1C(=O)N[C@@H]1C(=O)N2[C@@H]1SC(C)(C)[C@@H]2C(=O)O [DICLOXACILLIN] | – | – | – | 2.8 | 0.9 | 79 | -0.79 | – | –
CC(CCc1ccc(O)cc1)NCCc1ccc(O)c(O)c1 (configuration not stated) [DOBUTAMINE] | < 20 | -0.9 | -0.48 | 9.5 | – | – | – | – | –
NCCc1ccc(O)c(O)c1 [DOPAMINE] | < 20 | -0.9 | -3.37 | 8.9 | – | – | – | – | –
CSc1ccc(C(=O)c2[nH]c(=O)[nH]c2C)cc1 [ENOXIMONE] | – | – | – | – | 0 | 79 | 2.32 | – | –
CNC[C@H](O)c1ccc(O)c(O)c1 [EPINEPHRINE] | < 20 | -0.9 | -3.49 | 9.9 | – | – | – | – | –
CCNCC(O)c1cccc(O)c1 (configuration not stated) [ETILEFRINE] | – | -0.9 | – | 9.8 | – | – | – | 49 | -2.86
CCNC(C)Cc1cccc(C(F)(F)F)c1 (configuration not stated) [FENFLURAMINE] | – | -0.9 | – | 10 | – | – | – | 79 | 0.4
CCOC(=O)c1ncn2c1CN(C)C(=O)c1cc(F)ccc1-2 [FLUMAZENIL] | – | -0.14 | – | 6.2 | – | – | – | < 20 | 1.01

Structure (SMILES) | bioavailability (clinical [1]; F) [%] | delta logD [2] | logD (physchem [3]; pH 6.5, logD) | pKa (physchem [4]) | delta logD [5] | bioavailability (clinical [6]) [%] | logD (physchem [7]) | bioavailability (clinical [1]) [%] | logD (physchem [3]; pH 6.5)
O=c1[nH]cc(F)c(=O)[nH]1 [FLUOROURACIL] | – | 0.1 | – | 8 | – | – | – | 49 | -0.89
COCCCC/C(=N\OCCN)c1ccc(C(F)(F)F)cc1 [FLUVOXAMINE] | – | – | – | 9.5 | – | 79 | – | – | –
CC(C)NCC(O)c1ccc(O)c(O)c1 (configuration not stated) [ISOPROTERENOL] | 49 | -0.88 | -2.76 | 8.7 | – | – | – | – | –
CN(C)CC(Oc1ccccc1)Oc1ccccc1 [MEDIFOXAMINE] | 49 | -0.89 | -0.43 | 9.2 | – | – | – | – | –
CCOC(=O)C1(c2ccccc2)CCN(C)CC1 [MEPERIDINE] | – | – | – | – | -0.88 | 79 | 0.25 | – | –
CC(C)NCC(O)c1cc(O)cc(O)c1 (configuration not stated) [METAPROTERENOL] | < 20 | -0.9 | -2.72 | 9.3 | – | – | – | – | –
CN1CCN2c3ncccc3Cc3ccccc3C2C1 (configuration not stated) [MIRTAZAPINE] | 79 | -0.55 | 2.01 | 7.1 | – | – | – | – | –
Oc1ccc2c3c1O[C@H]1[C@@H](O)CC[C@@]4(O)[C@@H](C2)N(CC2CCC2)CC[C@]314 [NALBUPHINE] | – | -0.88 | – | 8.7 | – | – | – | < 20 | -0.63
COC(=O)C1=C(C)NC(C)=C(C(=O)OCCN(C)Cc2ccccc2)C1c1cccc([N+](=O)[O-])c1 (configuration not stated) [NICARDIPINE] | 49 | -0.72 | 1.18 | 7.6 | – | – | – | – | –
CNC(=C[N+](=O)[O-])NCCSCc1csc(CN(C)C)n1 [NIZATIDINE] | > 80 | -0.38 | -0.08 | 6.8 | – | – | – | – | –
Cc1nccn1CC1CCc2c(c3ccccc3n2C)C1=O (configuration not stated) [ONDANSETRON] | 79 | -0.61 | 1.13 | 7.3 | – | – | – | – | –
CNC[C@H](O)c1cccc(O)c1 [PHENYLEPHRINE] | 49 | -0.9 | -3.02 | 9.8 | – | – | – | – | –
O=C1NC(=O)C(c2ccccc2)(c2ccccc2)N1 [PHENYTOIN] | > 80 | 0.1 | 2.47 | 8 | – | – | – | – | –
CC(C)NCC(O)COc1cccc2[nH]ccc12 (configuration not stated) [PINDOLOL] | – | – | – | 8.8 | -0.88 | 79 | – | – | –
COc1cc(NC(C)CCCN)c2ncccc2c1 (configuration not stated) [PRIMAQUINE] | 79 | -0.9 | -2.19 | 10.3 | – | – | – | – | –
CN1CCN(CCCN2c3ccccc3Sc3ccc(Cl)cc32)CC1 [PROCHLORPERAZINE] | < 20 | -0.69 | 2.51 | 7.5 | – | – | – | – | –
CNCCCC1c2ccccc2C=Cc2ccccc21 [PROTRIPTYLINE] | > 80 | -0.84 | 0.34 | 8.2 | – | – | – | – | –
CCN1CCC[C@H]1CNC(=O)c1c(O)c(Cl)cc(Cl)c1OC [RACLOPRIDE] | – | – | – | 9.2 | – | 79 | – | – | –
Nc1nc2ccc(OC(F)(F)F)cc2s1 [RILUZOLE] | – | – | – | 6.5 | – | 79 | – | – | –
Oc1ccc(C(O)C2CCCCN2)cc1O (configuration not stated) [RIMITEROL] | – | -0.9 | – | 9.9 | – | – | – | < 20 | -3.13
CN(C/C=C/C#CC(C)(C)C)Cc1cccc2ccccc12 [TERBINAFINE] | 49 | -0.86 | 3.3 | 8.5 | – | – | – | – | –
O=c1n(CCCN2CCN(c3cccc(Cl)c3)CC2)nc2ccccn12 [TRAZODONE] | > 80 | -0.33 | 1.47 | 6.7 | – | – | – | – | –
